Some targets named below: BMPR1A (Homo sapiens (Human), UniProt P36894); CHEK1 (Homo sapiens (Human), UniProt O14757); DCAMKL2 (Homo sapiens (Human), UniProt Q8N568); EGFR(G719S) (Homo sapiens (Human), UniProt P00533, G719S); EPHA7 (Homo sapiens (Human), UniProt Q15375); ERK4 (Homo sapiens (Human), UniProt P31152); MAP4K2 (Homo sapiens (Human), UniProt Q12851); MAP4K3 (Homo sapiens (Human), UniProt Q8IVH8); MEK1 (Homo sapiens (Human), UniProt Q02750); MST1 (Homo sapiens (Human), UniProt Q13043); MTOR (Homo sapiens (Human), UniProt P42345); PCTK3 (Homo sapiens (Human), UniProt Q07002); PIK3CG (Homo sapiens (Human), UniProt P48736); PIP5K2C (Homo sapiens (Human), UniProt Q8TBX8); PLK1 (Homo sapiens (Human), UniProt P53350); RET(V804M) (Homo sapiens (Human), UniProt P07949, V804M); SgK110 (Homo sapiens (Human), UniProt P0C264); SNRK (Homo sapiens (Human), UniProt Q9NRH2); SRC (Homo sapiens (Human), UniProt P12931); STK36 (Homo sapiens (Human), UniProt Q9NRP7); TESK1 (Homo sapiens (Human), UniProt Q15569); WNK1 (Homo sapiens (Human), UniProt Q9H4A3); YANK1 (Homo sapiens (Human), UniProt Q8WU08).

Experiment in all cases: Kinase binding screen
Details in all cases: read-out: Percent Control at 100 nM Compound Concentration

In test [1] the target is ABL1(H396P)-phosphorylated (Homo sapiens (Human), UniProt P00519, H396P).

The structures appear in SMILES notation. Where two headings read alike, the source gives them in different places.

Chain of ERK4 (P31152 whole entry): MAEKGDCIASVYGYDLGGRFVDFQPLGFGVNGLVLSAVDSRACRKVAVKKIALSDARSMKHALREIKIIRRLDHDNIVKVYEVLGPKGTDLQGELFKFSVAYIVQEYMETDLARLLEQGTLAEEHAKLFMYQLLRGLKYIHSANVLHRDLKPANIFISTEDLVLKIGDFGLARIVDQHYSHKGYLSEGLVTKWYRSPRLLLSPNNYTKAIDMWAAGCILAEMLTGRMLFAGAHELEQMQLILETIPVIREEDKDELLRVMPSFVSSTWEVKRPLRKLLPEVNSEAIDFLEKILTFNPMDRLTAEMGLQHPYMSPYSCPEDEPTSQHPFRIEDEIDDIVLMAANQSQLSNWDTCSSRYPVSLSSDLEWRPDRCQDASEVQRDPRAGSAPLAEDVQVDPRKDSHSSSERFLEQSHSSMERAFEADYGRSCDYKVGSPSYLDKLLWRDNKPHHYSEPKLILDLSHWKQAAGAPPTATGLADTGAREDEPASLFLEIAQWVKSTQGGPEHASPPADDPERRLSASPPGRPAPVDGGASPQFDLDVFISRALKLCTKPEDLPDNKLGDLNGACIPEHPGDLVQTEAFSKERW
Chain of EGFR(G719S) (P00533 25-1210 G719S): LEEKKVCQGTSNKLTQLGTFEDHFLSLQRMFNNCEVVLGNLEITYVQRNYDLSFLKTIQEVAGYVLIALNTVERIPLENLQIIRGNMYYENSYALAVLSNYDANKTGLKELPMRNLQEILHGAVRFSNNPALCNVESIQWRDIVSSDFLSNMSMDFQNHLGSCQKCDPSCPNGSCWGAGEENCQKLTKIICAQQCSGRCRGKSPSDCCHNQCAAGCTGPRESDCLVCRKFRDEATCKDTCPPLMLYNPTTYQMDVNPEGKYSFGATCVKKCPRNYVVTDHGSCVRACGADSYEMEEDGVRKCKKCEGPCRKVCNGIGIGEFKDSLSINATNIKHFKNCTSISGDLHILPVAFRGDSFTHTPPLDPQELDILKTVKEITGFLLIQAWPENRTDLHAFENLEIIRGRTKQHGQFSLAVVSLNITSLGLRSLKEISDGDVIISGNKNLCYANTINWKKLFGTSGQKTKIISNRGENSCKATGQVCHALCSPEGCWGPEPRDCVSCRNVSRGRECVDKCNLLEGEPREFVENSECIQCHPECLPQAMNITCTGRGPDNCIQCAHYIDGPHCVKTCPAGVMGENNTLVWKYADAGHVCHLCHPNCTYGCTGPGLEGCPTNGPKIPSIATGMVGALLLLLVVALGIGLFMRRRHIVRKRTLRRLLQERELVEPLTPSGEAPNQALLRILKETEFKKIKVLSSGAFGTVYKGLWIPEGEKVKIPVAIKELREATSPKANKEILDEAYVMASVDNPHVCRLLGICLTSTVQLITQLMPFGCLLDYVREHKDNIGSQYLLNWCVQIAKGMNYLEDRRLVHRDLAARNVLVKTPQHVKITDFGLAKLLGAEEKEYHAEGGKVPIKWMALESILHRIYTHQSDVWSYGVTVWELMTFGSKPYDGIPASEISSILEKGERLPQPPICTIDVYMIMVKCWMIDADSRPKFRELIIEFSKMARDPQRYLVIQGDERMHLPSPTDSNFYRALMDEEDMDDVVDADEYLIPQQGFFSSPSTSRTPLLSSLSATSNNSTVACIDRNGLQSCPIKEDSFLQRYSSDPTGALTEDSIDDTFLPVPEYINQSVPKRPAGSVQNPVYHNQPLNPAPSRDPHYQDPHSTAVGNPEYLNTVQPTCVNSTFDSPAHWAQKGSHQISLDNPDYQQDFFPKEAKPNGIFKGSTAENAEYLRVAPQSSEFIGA
Chain of TESK1 (Q15569 whole entry): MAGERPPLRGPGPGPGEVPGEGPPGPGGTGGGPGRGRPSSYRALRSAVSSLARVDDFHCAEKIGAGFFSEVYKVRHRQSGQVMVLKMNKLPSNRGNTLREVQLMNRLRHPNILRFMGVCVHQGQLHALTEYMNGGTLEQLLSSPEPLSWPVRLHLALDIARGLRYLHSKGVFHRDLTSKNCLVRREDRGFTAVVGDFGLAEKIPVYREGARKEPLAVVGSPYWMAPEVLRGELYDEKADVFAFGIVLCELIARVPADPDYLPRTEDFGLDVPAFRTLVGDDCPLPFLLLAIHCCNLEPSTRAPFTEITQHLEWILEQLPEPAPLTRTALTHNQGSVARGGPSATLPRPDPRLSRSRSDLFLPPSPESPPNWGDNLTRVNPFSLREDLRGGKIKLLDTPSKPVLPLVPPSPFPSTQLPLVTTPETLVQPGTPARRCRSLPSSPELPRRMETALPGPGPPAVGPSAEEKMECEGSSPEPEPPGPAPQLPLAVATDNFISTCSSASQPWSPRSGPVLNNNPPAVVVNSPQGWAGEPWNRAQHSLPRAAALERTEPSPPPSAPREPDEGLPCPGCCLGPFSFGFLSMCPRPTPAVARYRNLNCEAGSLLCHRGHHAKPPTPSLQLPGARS
Chain of SRC (P12931 whole entry, looked up): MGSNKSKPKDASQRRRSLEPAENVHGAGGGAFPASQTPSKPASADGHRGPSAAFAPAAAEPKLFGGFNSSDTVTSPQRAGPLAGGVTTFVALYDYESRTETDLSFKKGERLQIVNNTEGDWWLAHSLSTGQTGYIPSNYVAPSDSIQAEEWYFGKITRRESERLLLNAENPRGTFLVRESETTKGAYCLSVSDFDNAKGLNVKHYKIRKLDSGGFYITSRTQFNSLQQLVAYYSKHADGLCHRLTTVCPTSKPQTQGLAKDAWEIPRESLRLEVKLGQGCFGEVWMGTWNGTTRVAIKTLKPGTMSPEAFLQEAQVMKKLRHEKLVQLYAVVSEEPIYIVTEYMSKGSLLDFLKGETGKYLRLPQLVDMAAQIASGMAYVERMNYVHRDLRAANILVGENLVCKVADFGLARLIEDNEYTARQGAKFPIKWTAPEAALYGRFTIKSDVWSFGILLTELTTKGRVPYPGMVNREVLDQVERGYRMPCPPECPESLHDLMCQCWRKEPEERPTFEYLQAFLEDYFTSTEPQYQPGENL
Chain of PCTK3 (Q07002 whole entry): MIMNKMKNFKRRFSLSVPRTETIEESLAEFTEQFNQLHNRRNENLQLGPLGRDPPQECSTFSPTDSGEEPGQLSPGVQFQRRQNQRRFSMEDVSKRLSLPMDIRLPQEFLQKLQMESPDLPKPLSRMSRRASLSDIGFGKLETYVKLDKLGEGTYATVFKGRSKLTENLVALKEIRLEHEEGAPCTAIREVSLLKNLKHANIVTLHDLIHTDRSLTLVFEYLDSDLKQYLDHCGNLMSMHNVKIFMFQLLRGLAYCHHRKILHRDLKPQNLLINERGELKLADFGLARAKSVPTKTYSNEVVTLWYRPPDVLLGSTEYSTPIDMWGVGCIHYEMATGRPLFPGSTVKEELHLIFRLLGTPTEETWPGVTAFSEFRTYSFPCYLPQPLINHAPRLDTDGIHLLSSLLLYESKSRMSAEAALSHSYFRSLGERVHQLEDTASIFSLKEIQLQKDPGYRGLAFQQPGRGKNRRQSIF
Chain of MAP4K2 (Q12851 whole entry): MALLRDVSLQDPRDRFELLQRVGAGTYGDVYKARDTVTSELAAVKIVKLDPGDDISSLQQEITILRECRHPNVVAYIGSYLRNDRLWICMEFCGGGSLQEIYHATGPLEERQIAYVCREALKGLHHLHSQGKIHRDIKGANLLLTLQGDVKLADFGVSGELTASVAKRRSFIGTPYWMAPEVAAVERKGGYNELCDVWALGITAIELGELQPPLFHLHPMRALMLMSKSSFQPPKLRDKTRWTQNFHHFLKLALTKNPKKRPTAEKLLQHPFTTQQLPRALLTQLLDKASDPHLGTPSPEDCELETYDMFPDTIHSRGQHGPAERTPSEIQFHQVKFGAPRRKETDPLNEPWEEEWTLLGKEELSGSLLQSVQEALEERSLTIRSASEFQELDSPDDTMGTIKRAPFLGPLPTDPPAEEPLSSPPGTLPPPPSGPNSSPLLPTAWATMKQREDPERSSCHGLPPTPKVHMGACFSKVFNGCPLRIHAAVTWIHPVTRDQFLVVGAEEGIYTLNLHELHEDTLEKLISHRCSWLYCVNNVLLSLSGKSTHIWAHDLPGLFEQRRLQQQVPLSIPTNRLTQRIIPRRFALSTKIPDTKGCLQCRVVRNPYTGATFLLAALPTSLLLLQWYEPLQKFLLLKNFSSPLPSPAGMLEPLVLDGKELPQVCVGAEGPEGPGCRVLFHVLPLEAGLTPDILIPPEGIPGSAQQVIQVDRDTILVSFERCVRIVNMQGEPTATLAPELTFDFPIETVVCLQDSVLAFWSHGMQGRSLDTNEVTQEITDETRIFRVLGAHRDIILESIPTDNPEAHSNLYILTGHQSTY
Chain of BMPR1A (P36894 24-532): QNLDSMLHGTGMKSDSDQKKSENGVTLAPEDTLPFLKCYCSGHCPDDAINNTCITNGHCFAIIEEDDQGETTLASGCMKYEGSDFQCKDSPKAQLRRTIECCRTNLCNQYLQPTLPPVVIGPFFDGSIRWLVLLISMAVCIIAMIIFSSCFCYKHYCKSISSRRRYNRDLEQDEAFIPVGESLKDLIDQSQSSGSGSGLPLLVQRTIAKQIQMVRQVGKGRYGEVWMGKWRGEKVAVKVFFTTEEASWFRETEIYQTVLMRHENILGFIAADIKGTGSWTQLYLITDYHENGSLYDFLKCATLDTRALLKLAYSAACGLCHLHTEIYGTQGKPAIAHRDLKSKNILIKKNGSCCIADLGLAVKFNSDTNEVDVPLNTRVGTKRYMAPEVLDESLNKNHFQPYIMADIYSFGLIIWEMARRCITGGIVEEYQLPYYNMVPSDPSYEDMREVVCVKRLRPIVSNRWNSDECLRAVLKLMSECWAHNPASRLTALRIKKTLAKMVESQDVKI

With `CN(C[C@H](Cc1ccccc1)OP(=O)(O)O)C(=O)c1cncc(C#Cc2cnn(C(F)F)c2)c1` [Example 19, (S)-1-(5-((1-(difluoromethyl)-1H-pyrazol-4-yl)ethynyl)-N-methylnicotinamido)-3-phenylpropan-2-yl dihydrogen phosphate], the remaining activity at 0.1 µM in test [1] is 93%; at BMPR1A, 94%; on CHEK1, 100%; on DCAMKL2, 100%; on EGFR(G719S), 72%; on EPHA7 it was 96%. Moreover, the remaining activity at 0.1 µM at ERK4 stood at 100%; on MAP4K2, 83%; on MAP4K3, 100%; at MEK1, 99%; on MST1, 100%; at MTOR it was 67%. For the same compound, the remaining activity at 0.1 µM was determined as 100% on PCTK3; 100% at PIK3CG; 74% at PIP5K2C; 87% at PLK1; 100% at RET(V804M); 77% at SgK110. In addition, the remaining activity at 0.1 µM stood at 100% at SNRK; 100% at SRC; 100% at STK36; 100% on TESK1; 94% on WNK1; 100% on YANK1.
`CN(C[C@@H](O)Cc1ccccc1)C(=O)c1cncc(C#Cc2cnn(C(F)F)c2)c1` [Example 2, (S)-5-((1-(difluoromethyl)-1H-pyrazol-4-yl)ethynyl)-N-(2-hydroxy-3-phenylpropyl)-N-methylnicotinamide]: the remaining activity at 0.1 µM amounted to 94% in test [1] (ABL1(H396P)-phosphorylated); 86% on BMPR1A (BMPR1A); 100% on CHEK1 (CHEK1); 100% at DCAMKL2 (DCAMKL2); 100% on EGFR(G719S) (EGFR(G719S)); 97% at EPHA7 (EPHA7). In addition, the remaining activity at 0.1 µM was 100% at ERK4 (ERK4); 88% at MAP4K2 (MAP4K2); 100% at MAP4K3 (MAP4K3); 98% on MEK1 (MEK1); 100% at MST1 (MST1); 73% on MTOR (MTOR). Also, the remaining activity at 0.1 µM at PCTK3 (PCTK3) came out at 100%; at PIK3CG (PIK3CG), 100%; on PIP5K2C (PIP5K2C), 63%; on PLK1 (PLK1), 87%; on RET(V804M) (RET(V804M)), 100%; at SgK110 (SgK110), 81%. Also, the remaining activity at 0.1 µM at SNRK (SNRK) is 100%; on SRC (SRC) it was 97%; on STK36 (STK36), 100%; at TESK1 (TESK1), 100%; on WNK1 (WNK1) it was 93%; at YANK1 (YANK1), 100%.

(Values after patent US11767310B2, “Nicotinamide RIPK1 inhibitors” (AbbVie Inc., priority 2021, dated 2023).)
